Assay results: patent US20180148648A1, “REACTIVE MESOGENS” (Merck Patent GmbH, priority 2015, published 2018)

Assay: Yellowing study by UV-Vis percentage transmission after UV exposure
Type: physicochemical
Conditions: 1 wt. % in dichloromethane; percentage transmission across visible range; cured at 0, 100, 500, 1000 and 3000 mJ; FIG. 2
Excerpt: UV-Vis spectroscopy was used to measure the compound yellowing by measuring the percentage transmission for each of the compounds across the visible range. This was done by dissolving 1 wt. % of each compound in a solvent, usually dichloromethane, and measuring the solutions percentage transmission on the Hitachi UV-Vis spectrometer, with air as a baseline. The solutions were then cured at a variety of different doses (0, 100, 500, 1000 and 3000 mJ) and the transmission measured again.
Anhydrous dichloromethane was used to dissolve the mixtures, as it remains unaffected when exposed to UV light. By comparing these percentage transmissions it could be concluded, which compound yellow and to what extent.

Row | change in yellowing when exposed to UV-light | Compound
1 | significant increase in yellowing | C=CC(=O)OCCCCCCOc1ccc(C(=O)Oc2ccc(C#Cc3ccc(OC)cc3)cc2C)cc1 [B]
2 | least amount of change in yellowing | C=CC(=O)OCCCCCCOc1ccc(C(=O)Oc2ccc(C#Cc3ccc(OC)cc3)cc2F)cc1 [RM-1]
3 | least amount of change in yellowing | C=CC(=O)OCCCCCCOc1ccc(C(=O)Oc2ccc(C#Cc3ccc(OC)cc3)cc2Cl)cc1 [A]
